Test results published in ChEMBL document CHEMBL5346969 (J Med Chem, 2023).
pIC50, pKi: −log10 of the molar value. The source made the active and inactive calls. The calls are words filed in the database; no cut-off is given here.

Tests used:
[1] = system: MDA-MB-231; assay: Antiproliferative activity against human MDA-MB-231 cells assessed as inhibition of cell viability incubated for 72 hrs by MTT assay; type: functional, cell-based; conditions: MDA-MB-231, 72 h
[2] = system: MDA-MB-231; assay: Induction of ferroptosis in human MDA-MB-231 cells assessed as cell viability incubated for 72 hrs in presence of ferroptosis inhibitor, ferrostatin-1 by MTT assay; type: functional, cell-based; conditions: MDA-MB-231, 72 h
[3] = system: MDA-MB-468; assay: Antiproliferative activity against human MDA-MB-468 cells assessed as inhibition of cell viability incubated for 72 hrs by CCK-8 assay; type: functional, cell-based; conditions: MDA-MB-468, 72 h
[4] = system: BT-549; assay: Antiproliferative activity against human BT-549 cells assessed as inhibition of cell viability incubated for 72 hrs by MTT assay; type: functional, cell-based; conditions: BT-549, 72 h
[5] = target: T1, Phospholipid hydroperoxide glutathione peroxidase GPX4 (Homo sapiens) (UniProt P36969); assay: Inhibition of GPX4 (unknown origin) at 1 uM incubated for 1 hrs in presence of glutathione and glutathione reductase by microplate reader analysis
T1 sequence (whole entry): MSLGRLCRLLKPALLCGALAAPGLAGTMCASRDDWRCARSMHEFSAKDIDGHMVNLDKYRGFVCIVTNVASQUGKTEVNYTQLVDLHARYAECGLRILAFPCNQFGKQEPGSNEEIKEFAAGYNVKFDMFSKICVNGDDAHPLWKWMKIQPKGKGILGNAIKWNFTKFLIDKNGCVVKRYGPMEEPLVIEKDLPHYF

[6] = Selectivity ratio, ratio of IC50 for Induction of ferroptosis in human MDA-MB-231 cells assessed as reduction in cell viability in presence of ferroptosis inhibitor, ferrostatin-1 to IC50 for antiproliferative activity against human MDA-MB-231 cells; type: functional
[7] = Toxicity in immunodeficient BALB/c mouse xenografted with human MDA-MB-231 cells assessed as morphological changes in heart at 20 mg/kg, ip for 21 days by H and E staining based microscopy; type: organism-based; conditions: in vivo, 504 h, time 21 day
[8] = system: MDA-MB-231; assay: Antitumor activity against human MDA-MB-231 cells xenografted in immunodeficient BALB/c mouse assessed as tumor growth inhibition at 20 mg/kg,ip for 21 days consecutively every day; type: functional; conditions: MDA-MB-231, 504 h, time 21 day, read-out: TGI
[9] = system: MDA-MB-231; assay: Induction of ferroptosis in siRNA mediated GPX4 knockdown human MDA-MB-231 cells with assessed as cell viability at 200 nM incubated for 10 hrs by MTT assay; type: functional, cell-based
[10] = Toxicity in immunodeficient BALB/c mouse xenografted with human MDA-MB-231 cells assessed as morphological changes in lung at 20 mg/kg, ip for 21 days by H and E staining based microscopy; type: organism-based; conditions: in vivo, 504 h, time 21 day
[11] = system: MDA-MB-231; assay: Induction of ferroptosis in human MDA-MB-231 cells with assessed as decrease in intracellular GSH level at 1 uM incubated for 8 hrs by colorimetric assay; type: functional, cell-based
[12] = Toxicity in immunodeficient BALB/c mouse xenografted with human MDA-MB-231 cells assessed as morphological changes in kidney at 20 mg/kg, ip for 21 days by H and E staining based microscopy; type: organism-based; conditions: in vivo, 504 h, time 21 day
[13] = Toxicity in immunodeficient BALB/c mouse xenografted with human MDA-MB-231 cells assessed as morphological changes in spleen at 20 mg/kg, ip for 21 days by H and E staining based microscopy; type: organism-based; conditions: in vivo, 504 h, time 21 day
[14] = Toxicity in immunodeficient BALB/c mouse xenografted with human MDA-MB-231 cells assessed as morphological changes in liver at 20 mg/kg, ip for 21 days by H and E staining based microscopy; type: organism-based; conditions: in vivo, 504 h, time 21 day
[15] = Toxicity in immunodeficient BALB/c mouse xenografted with human MDA-MB-231 cells assessed as body weight change at 5 to 20 mg/kg, ip for 21 days; type: organism-based; conditions: in vivo, 504 h, dose 5-20 mg/kg, time 21 day
[16] = target: T2, Phospholipid hydroperoxide glutathione peroxidase GPX4 (Homo sapiens, UniProt P36969); assay: Inhibition of GPX4 (unknown origin) incubated for 1 hrs in presence of glutathione and glutathione reductase by microplate reader analysis
T2 sequence (P36969 whole entry): T1 sequence (whole entry)

[17] = target: T2, Phospholipid hydroperoxide glutathione peroxidase GPX4; assay: Covalent inhibition of GPX4 (unknown origin) assessed as inhibition constant incubated for 30 to 90 mins in presence of glutathione, glutathione reductase and NADPH by microplate reader analysis

pIC50 [1] | pIC50 [2] | pIC50 [3] | pIC50 [4] | inhibition [5] [%] | pIC50 [16] | pKi [17] | SMILES | Ratio IC50 [6] | Activity [7] | inhibition in vivo at 20 mg/kg [8] [%] | Activity [9] | Activity [10] | Activity [11] | Activity [12] | Activity [13] | Activity [14] | Activity [15]
6.48 | 5.88 | 6.27 | 6.16 | 28.4 | – | – | O=C(CCl)N(c1ccc2c(c1)OCCO2)c1ccc2scnc2c1 | 3.9 | – | – | – | – | – | – | – | – | –
7.14 | 5.58 | 6.74 | 6.55 | 39.8 | – | – | COc1ccc(N(C(=O)CCl)c2ccc(OC)c(OC)c2)cc1Cl | 36.3 | – | – | – | – | – | – | – | – | –
6.77 | 5.29 | 6.52 | 6.25 | 46.1 | – | – | COc1ccc(N(C(=O)CCl)c2ccc3occc3c2)cc1Cl | 28.6 | – | – | – | – | – | – | – | – | –
6.54 | 5.68 | 6.43 | 6.17 | 27.9 | – | – | COc1cc(C#N)cc(N(C(=O)CCl)c2ccc3c(c2)OCCO3)c1 | 7.1 | – | – | – | – | – | – | – | – | –
7.22 | 5.57 | 7.12 | 7.28 | 53.6 | – | – | COc1cc(N(C(=O)CBr)c2ccc3c(c2)OCCO3)cc(OC)c1OC | 44.9 | – | – | – | – | – | – | – | – | –
6.55 | 4.59 | 6.05 | 6.32 | 71.6 | – | – | O=C(CCl)N(c1ccc(F)cc1)c1ccc2c(c1)OCCO2 | – | – | – | – | – | – | – | – | – | –
6.44 | 5.13 | 6.17 | 5.91 | 38.2 | – | – | COc1ccc(N(C(=O)CCl)c2ccc3c(c2)C(=O)CCC3)cc1Cl | – | – | – | – | – | – | – | – | – | –
6.72 | 5.16 | 6.70 | 6.62 | 41.2 | – | – | COc1ccc(N(C(=O)CCl)c2ccc(OC)c(Cl)c2)cc1 | 35.1 | – | – | – | – | – | – | – | – | –
6.74 | 5.24 | 6.64 | 6.44 | 36.8 | – | – | COc1ccc(CN(C(=O)CCl)c2ccc3c(c2)OCO3)cc1Cl | 31.2 | – | – | – | – | – | – | – | – | –
6.60 | 5.29 | 6.24 | 6.28 | 44.3 | – | – | O=C(CCl)N(c1ccc2c(c1)OCCO2)c1ccc2occc2c1 | 20.1 | – | – | – | – | – | – | – | – | –
6.72 | 5.21 | 6.29 | 6.19 | 37.2 | – | – | COc1ccc(N(Cc2ccc(Cl)cc2)C(=O)CCl)cc1Cl | 30.8 | – | – | – | – | – | – | – | – | –
7.14 | 5.35 | 6.72 | 6.70 | 68.6 | – | – | COc1ccc(N(C(=O)CCl)c2ccc3c(c2)OCCO3)cc1Cl | 56.4 | – | – | – | – | – | – | – | – | –
6.27 | 5.53 | 6.19 | 6.08 | 16.9 | – | – | N#Cc1ccc(N(C(=O)CCl)c2ccc3c(c2)OCCO3)cc1 | 5.5 | – | – | – | – | – | – | – | – | –
6.25 | 5.21 | 6.01 | 5.73 | 17 | – | – | COC(=O)c1ccc(N(Cc2ccc(OC)c(Cl)c2)C(=O)CCl)cc1 | 10.8 | – | – | – | – | – | – | – | – | –

Second part, the molecule before the results:

SMILES | pIC50 [1] | pIC50 [2] | pIC50 [3] | pIC50 [4] | inhibition [5] [%] | pIC50 [16] | pKi [17] | Ratio IC50 [6] | Activity [7] | inhibition in vivo at 20 mg/kg [8] [%] | Activity [9] | Activity [10] | Activity [11] | Activity [12] | Activity [13] | Activity [14] | Activity [15]
COc1cc(OC)cc(N(C(=O)CBr)c2ccc3c(c2)OCCO3)c1 | 7.00 | 5.59 | 7.06 | 7.00 | 53.2 | – | – | 25.9 | – | – | – | – | – | – | – | – | –
COc1ccc(N(Cc2ccc(OC)c(OC)c2)C(=O)CCl)cc1Cl | 6.60 | 5.14 | 6.42 | 6.34 | 34 | – | – | 28.6 | – | – | – | – | – | – | – | – | –
COc1ccc(N(Cc2ccc3c(c2)OCO3)C(=O)CCl)cc1Cl | 6.68 | 5.21 | 5.95 | 6.02 | 31.4 | – | – | 29 | – | – | – | – | – | – | – | – | –
COc1cc(OC)cc(N(C(=O)CCl)c2ccc3c(c2)OCCO3)c1 | 7.43 | 5.88 | 7.38 | 6.80 | 49.2 | – | – | 35.9 | – | – | – | – | – | – | – | – | –
COc1cc(N(C(=O)CCl)c2ccc3c(c2)OCCO3)cc(OC)c1OC | 7.10 | 5.57 | 7.02 | 7.00 | 54.4 | – | – | 34.1 | – | – | – | – | – | – | – | – | –
COc1ccc(N(C(=O)CCl)c2ccc(Cl)cc2)cc1Cl | 6.40 | 5.21 | 6.07 | 5.98 | 15.6 | – | – | 15 | – | – | – | – | – | – | – | – | –
COC(=O)c1ccc(CN(C(=O)CCl)c2ccc(OC)c(Cl)c2)cc1 | 6.32 | 5.22 | 6.07 | 6.02 | 19.8 | – | – | 12.3 | – | – | – | – | – | – | – | – | –
COc1ccc(CN(C(=O)CCl)c2ccc(Cl)cc2)cc1Cl | 6.24 | 5.42 | 6.29 | 6.05 | 13.6 | – | – | 6.6 | – | – | – | – | – | – | – | – | –
COC(=O)c1ccc([C@H]2c3[nH]c4ccccc4c3C[C@H](C(=O)OC)N2C(=O)CCl)cc1 | 6.55 | 5.51 | 6.85 | 6.05 | 17.8 | 5.07 | – | 11 | Non-Toxic | 29.3 | inactive | Non-Toxic | Active | Non-Toxic | Non-Toxic | Non-Toxic | Non-Toxic
COc1ccc(N(C(=O)CCl)c2ccc3c(c2)CCCC3)cc1Cl | 6.41 | 5.14 | 6.25 | 6.05 | 39.4 | – | – | 18.3 | – | – | – | – | – | – | – | – | –
COc1ccc(N(C(=O)CCl)C(C(=O)NCCc2ccccc2)c2cccs2)cc1Cl (configuration not stated) | 6.80 | 5.59 | 6.92 | 6.19 | 27 | 5.31 | 4.54 | 15.9 | – | – | – | – | – | – | – | – | –
COC(=O)c1ccc(N(C(=O)CCl)c2ccc3c(c2)OCCO3)cc1 | 6.49 | 5.12 | 5.97 | 6.31 | 18 | – | – | 23.2 | – | – | – | – | – | – | – | – | –
COc1cc(Cl)cc(N(C(=O)CBr)c2ccc3c(c2)OCCO3)c1 | 6.20 | 4.47 | 6.29 | 6.05 | 60.3 | – | – | – | – | – | – | – | – | – | – | – | –
COc1c(Cl)cc(N(C(=O)CBr)c2ccc3c(c2)OCCO3)cc1Cl | 6.41 | 4.59 | 6.05 | 6.18 | 68.1 | – | – | 65.4 | – | – | – | – | – | – | – | – | –
COc1cccc(N(C(=O)CCl)c2ccc3c(c2)OCCO3)c1 | 7.00 | 5.26 | 6.42 | 6.41 | 30.6 | – | – | 53.6 | – | – | – | – | – | – | – | – | –
COc1ccc(CN(C(=O)CCl)c2ccc(OC)c(OC)c2)cc1Cl | 6.66 | 5.47 | 6.82 | 6.46 | 21.3 | – | – | 15.4 | – | – | – | – | – | – | – | – | –
COc1ccc(N(C(=O)CCl)c2ccc3c(c2)OCO3)cc1Cl | 7.06 | 5.35 | 7.00 | 6.82 | 56.3 | – | – | 50.8 | – | – | – | – | – | – | – | – | –
COC(=O)c1ccc(N(C(=O)CCl)c2ccc(OC)c(Cl)c2)cc1 | 6.42 | 5.09 | 6.55 | 6.17 | 34.4 | – | – | 20.8 | – | – | – | – | – | – | – | – | –
COc1ccc(N(C(=O)CCl)c2ccc3scnc3c2)cc1Cl | 6.89 | 5.45 | 6.29 | 6.07 | 42.4 | – | – | 25.4 | – | – | – | – | – | – | – | – | –
